In ChEMBL document CHEMBL3414454, “Designing and exploring active N'-[(5-nitrofuran-2-yl) methylene] substituted hydrazides against three Trypanosoma cruzi strains more prevalent in Chagas disease patients” (Eur J Med Chem, 2015):

Key:
Trypanosoma cruzi [1] = assay: Anti-trypanosomal activity against Trypanosoma cruzi Silvio X10 cl1 epimastigote forms assessed as inhibition of parasite growth after 72 hrs by microplate reader based assay; type: functional, organism-based; details: for IC50: Trypanosoma cruzi, Silvio X10 cl1, 72 h
Trypanosoma cruzi [2] = assay: Anti-trypanosomal activity against Trypanosoma cruzi Bug 2149 cl10 epimastigote forms assessed as inhibition of parasite growth after 72 hrs by microplate reader based assay; type: functional, organism-based; details: for IC50: Trypanosoma cruzi, Bug 2149 cl10, CL1-0, 72 h
[3] = Selectivity index, ratio of IC50 for human LL24 cells to IC50 for Trypanosoma cruzi Y epimastigote forms; type: toxicity, cell-based; details: read-out: Ratio IC50
[4] = Cytotoxicity against human LL24 cells assessed as inhibition of cell growth after 24 hrs by MTT assay; type: cell-based; details: LL24, 24 h
[5] = Selectivity index, ratio of IC50 for human LL24 cells to IC50 for Trypanosoma cruzi Bug 2149 cl10; type: toxicity, cell-based; details: read-out: Ratio IC50
Trypanosoma cruzi [6] = assay: Anti-trypanosomal activity against Trypanosoma cruzi Y epimastigote forms assessed as inhibition of parasite growth after 72 hrs by microplate reader based assay; type: functional, organism-based; details: for IC50: Trypanosoma cruzi, Y, 72 h
[7] = Selectivity index, ratio of IC50 for human LL24 cells to IC50 for Trypanosoma cruzi Silvio X10 cl1 epimastigote forms; type: toxicity, cell-based; details: read-out: Ratio IC50

Row | Structure (SMILES) | log1/IC50 (Trypanosoma cruzi [1]) | IC50 (Trypanosoma cruzi [1]) [µM] | log1/IC50 (Trypanosoma cruzi [2]) | IC50 (Trypanosoma cruzi [2]) [µM] | log1/IC50 (Trypanosoma cruzi [6]) | IC50 (Trypanosoma cruzi [6]) [µM] | selectivity ratio [3] | IC50 [4] [µM] | selectivity ratio [5] | selectivity ratio [7]
1 | CCCOc1ccc(C(=O)N/N=C/c2ccc([N+](=O)[O-])o2)cc1 | 4.89 | 12.8 | 5.01 | 9.72 | 5.13 | 7.33 | > 27 | > 200 | > 21 | > 16
2 | CC(C)(C)OC(=O)N/N=C/c1ccc([N+](=O)[O-])o1 | 4.86 | 13.8 | 4.91 | 12.2 | 5.03 | 9.41 | > 21 | > 200 | > 16 | > 14
3 | CCCCCC(=O)N/N=C/c1ccc([N+](=O)[O-])o1 | 5.01 | 9.72 | 4.91 | 12.2 | 4.99 | 10.2 | 10 | 99 | 8 | 10
4 | CCCc1ccc(C(=O)N/N=C/c2ccc([N+](=O)[O-])o2)cc1 | 4.99 | 10.3 | 5.01 | 9.8 | 5.04 | 9.09 | 10 | 89 | 9 | 9
5 | Cc1cccc(C(=O)N/N=C/c2ccc([N+](=O)[O-])o2)c1 | 4.56 | 27.7 | 4.61 | 24.8 | 5 | 9.89 | > 20 | > 200 | > 8 | > 7
6 | O=C(Cc1ccccc1)N/N=C/c1ccc([N+](=O)[O-])o1 | 4.69 | 20.2 | 4.91 | 12.3 | 4.96 | 11 | 8.83 | 97 | 7.91 | 4.79
7 | O=C(N/N=C/c1ccc([N+](=O)[O-])o1)c1ccc(O)cc1 [NIFUROXAZIDE] | – | – | 3.52 | 300 | 3.52 | 300 | > 1 | > 200 | > 1 | –
8 | CCCCCCCC(=O)N/N=C/c1ccc([N+](=O)[O-])o1 | 4.83 | 14.7 | 4.84 | 14.4 | 4.87 | 13.5 | 7 | 91 | 6 | 6

Now those with a lower IC50 (Trypanosoma cruzi [2]), led by results:

Row | log1/IC50 (Trypanosoma cruzi [1]) | IC50 (Trypanosoma cruzi [1]) [µM] | log1/IC50 (Trypanosoma cruzi [2]) | IC50 (Trypanosoma cruzi [2]) [µM] | log1/IC50 (Trypanosoma cruzi [6]) | IC50 (Trypanosoma cruzi [6]) [µM] | Structure (SMILES) | selectivity ratio [3] | IC50 [4] [µM] | selectivity ratio [5] | selectivity ratio [7]
9 | 5.29 | 5.07 | 5.37 | 4.25 | 5.46 | 3.47 | CCCCOc1ccc(C(=O)N/N=C/c2ccc([N+](=O)[O-])o2)cc1 | > 58 | > 200 | > 47 | > 39
10 | 5.5 | 3.17 | 5.74 | 1.81 | 5.93 | 1.17 | O=C(N/N=C/c1ccc([N+](=O)[O-])o1)c1ccc(-c2ccccc2)cc1 | > 176 | > 200 | > 110 | > 63
11 | 5.22 | – | 5.14 | 7.32 | 4.89 | 12.8 | CC1CS(=O)(=O)CCN1/N=C/c1ccc([N+](=O)[O-])o1 (stereo unspecified) [NIFURTIMOX] | > 16 | > 200 | > 27 | > 33
12 | 5.36 | 4.34 | 5.37 | 4.22 | 5.51 | 3.39 | CCCCNc1ccc(C(=O)N/N=C/c2ccc([N+](=O)[O-])o2)cc1 | 14 | 47 | 11 | 11
